These results are taken from patent US12448483B2, “Process for preparing carboxylic acid ester-cross-linked polyglycerol esters of 3-hydroxybutyric acid” (KetoLipix Therapeutics GmbH, priority 2020, dated 2025).

A short description of series [1]: Viscosity of samples from the structural analysis. In kind it is physicochemical. The protocol: For structural analysis, a monodiglycerol ester of 3-hydroxybutyric acid crosslinked with succinic acid is produced according to synthesis route (A) and characterized by gel permeation chromatography (GPC) and acid number determination.
(§1) Subsequently, in the second method step (b), 100 g of the monodiglycerol ester of 3-hydroxybutyric acid are caused to react with 10 g succinic acid anhydride according to a first batch with stirring at 80° C. for 20 h and the water formed is continuously withdrawn by distillation. A sample is taken for further analysis (Sample A) and then another 7 g succinic acid anhydride are added and caused to react at 120° C. for another 6 h. The water formed is withdrawn by continuous distillation. Then another sample is taken for analysis (sample C).
as §1, with “Furthermore,” for “Subsequently,”, “(b), according to a second approach,” for “(b),”, “with the addition of 100 μL of titanium tetrabutylate (catalyst)” for “according to a first batch”, “(sample B)” for “(Sample A)”, “80°” for “120°”, “D).” for “C).”

The conditions of series [2]: even if several grams are taken; cited from earlier work.

For “monodiglycerol esters of 3-hydroxybutyric acid [Educt]”, the “Viscosity at 25° C.” value in series [1] was 15,700 Pas.
As to `CC(O)CC(=O)O` (centres unmarked) [3-hydroxybutyric acid], the Duration of ketosis result in series [2] is “three to four”.
